In data set [1] the target is T1, rHuPH20 (Homo sapiens, UniProt P38567).
T1 construct: made in house; host or cells: CHO cells (DG44 CHO, HZ24 plasmid, clone 2B2)
T1 sequence (P38567 36-482): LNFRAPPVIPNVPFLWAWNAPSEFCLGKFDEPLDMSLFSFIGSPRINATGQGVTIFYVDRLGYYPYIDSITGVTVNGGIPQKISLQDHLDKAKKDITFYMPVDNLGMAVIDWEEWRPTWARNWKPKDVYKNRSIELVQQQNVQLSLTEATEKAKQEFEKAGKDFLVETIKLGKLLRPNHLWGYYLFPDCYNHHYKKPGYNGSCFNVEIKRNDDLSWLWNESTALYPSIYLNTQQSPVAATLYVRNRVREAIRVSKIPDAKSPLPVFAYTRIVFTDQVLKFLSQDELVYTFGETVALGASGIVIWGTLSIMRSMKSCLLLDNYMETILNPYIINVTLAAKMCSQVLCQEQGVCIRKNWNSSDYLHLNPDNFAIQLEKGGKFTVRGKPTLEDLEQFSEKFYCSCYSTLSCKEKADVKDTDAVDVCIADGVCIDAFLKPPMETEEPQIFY
The experiment in a line: Determination of hyaluronidase activity of rHuPH20, turbidimetric assay (Example 2, variant not specified). It is filed as biochemical. The conditions noted are these: for Effect on rHuPH20 enzymatic activity: stabilizer screening in rHuPH20/insulin formulation, semi-quantitative in comparison with NaCl, samples incubated at 30° C. for about one week; for rHuPH20 enzymatic activity: 30° C. for one month, starting 650 U/mL.

The nature of data set [2]: RP-HPLC: insulin apparent solubility / percent recovery. On the procedure: Apparent solubility was measured as the percent insulin recovery as compared to the initial formulations/conditions.
Samples were prepared by withdrawing 100 μL from each vial at every time point and centrifuging prior to loading. Samples were stored in an autosampler at 4° C. prior to use, and were considered stable for 3 days after preparation. All samples were tested in duplicate.
For insulin, 20 μL was injected for each HPLC run.
To determine the apparent solubility, the peak area of insulin/insulin analog main peak and desamido peak were integrated and combined together to calculate the percentage relative to the standards. […] The data were processed using Design-Expert® 7.0 (StatEase) and the “historical data” feature. Insulin percent purity was expressed as the percent of main insulin versus all insulin species.

For data set [3] the following is noted: reported; cited from earlier work.
In data set [4] the target is T1, rHuPH20. The experiment in a line: RP-HPLC: rHuPH20 oxidation peaks (ox-1, ox-2). It counts as physicochemical. The conditions noted are these: 30° C.; for % of Oxidation Peak 1 of rHuPH20: 0.02% surfactant, 72 hours. The text has this: The stability of hyaluronan degrading enzymes in a composition, such as in the co-formulations provided herein, also can be assessed using other methods and assays known in the art. […] Percent recovery is the relative percentage of the hyaluronidase in the co-formulation over time and at various storage conditions, as compared to a reference sample. […] An increase in particle size and a decrease in the melting temperature indicates denaturation and subsequent aggregation of the hyaluronidase. […] Other methods known to one of skill in the art that can be used to determine the stability of the hyaluronidase in the co-formulations provided herein, include polyacrylamide gel electrophoresis (PAGE), immunoblotting, nuclear magnetic resonance (NMR) spectroscopy, mass spectrometry, circular dichroism (CD) and dye-based fluorescence assays.
The formulations varied in the surfactant and surfactant concentration and the buffer (either histidine or phosphate).
Methionine oxidation can be prevented by addition of free methionine as a scavenger to react with potential oxidative compounds.

For data set [5], the system named is Aspergillus niger, Pseudomonas aeruginosa, E. coli, Staphylococcus aureus and Candida albicans. The experiment in a line: Antimicrobial (preservative) effectiveness test, USP / EPA / EPB criteria. It counts as cell-based. The text has this:
One of skill in the art is familiar with the antimicrobial preservative effectiveness test and standards to be meet under the USP and EPA or EPB in order to meet minimum requirements. […] The preservative properties of the composition are deemed adequate if, under the conditions of the test, there is a significant fall or no increase, as specified in Table 6, below, in the number of microorganisms in the inoculated composition after the times and at the temperatures prescribed. The criteria for evaluation are given in terms of the log reduction in the number of viable microorganism as compared to the initial sample or the previous timepoint.
The number of viable microorganisms (cfu) in each sample is determined by plate count or membrane filtration. Finally, the cfu for each sample is compared to either the inoculum or the previous sample and log reduction is determined.
The tests were performed according to the guidance of EP and USP by a contract analytical laboratory (Quadrants Scientific, Inc., San Diego, Calif.). […] Raw data (CFU/mL) was converted to a log 10 unit reduction from the measured inoculum. […]
The tests were performed according to the guidance of EP and USP by a contract analytical laboratory (Quadrants Scientific, Inc., San Diego, Calif. and Lancaster Laboratories, Lancaster, Pa.). […] Raw data (CFU/mL) was converted to a log 10 unit reduction from the measured inoculum. […]

Data set [6] can be described thus: Lysyl lysine as buffer: titration curve and effect of temperature on pH. It counts as physicochemical. The following applies: rHuPH20/insulin glulisine formulations, 30-105 mM lysyl lysine.
The mark [7] stands for this setting: stabilizer screening in rHuPH20/insulin formulation, semi-quantitative in comparison with NaCl, RP-HPLC, samples stored at 5° C.

Read-outs that look alike come from different tables or passages of the source.

As for `NC(CO)(CO)CO` [Tris], at rHuPH20 [1], the “Effect on rHuPH20 enzymatic activity” value was “No effect”. For the same molecule, in data set [2], the “Effect on insulin solubility” value is reported as “No effect”. In addition, the “temperature effect (dpH/dT)” value in data set [3] is −0.028 U/° C.

Take Polysorbate 20: the “% of Oxidation Peak 1 of rHuPH20” value is 4.01% on rHuPH20 [4] (Methionine 0 mM), 3.43% at rHuPH20 [4] (Methionine 2 mM), 3.37% on rHuPH20 [4] (Methionine 10 mM) and 3.38% on rHuPH20 [4] (Methionine 50 mM).

For `CSCC[C@H](N)C(=O)O` [methionine], the rHuPH20 enzymatic activity on rHuPH20 [1] (1 mM methionine) came out at 525 U/mL; at rHuPH20 [1] (20 mM methionine) it was 522 U/mL. Also, at rHuPH20 [1], the “Effect on rHuPH20 enzymatic activity” value is on record as “No effect”. In data set [2] (setting [7]), the “Effect on insulin solubility” value is recorded as “No effect”. On rHuPH20 [4] (40 mM methionine, rHuPH20/insulin formulation, 5 weeks), the “ox-1 peak of rHuPH20 compared to formulations without methionine” value was “significantly smaller”. In addition, in data set [5] (component concentration (50-100 mM), formulations with 100 U/mL insulin or analog and 5 μg/mL rHuPH20), the “Effect on antimicrobial effectiveness” value was “Neutral”.

For the molecule `[Cl-].[Na+]` [NaCl], the “Effect on antimicrobial effectiveness” value in data set [5] (component concentration (80-100 mM)) is “Neutral”.

On to Polysorbate 80, for which the “% of Oxidation Peak 1 of rHuPH20” value turned out to be 4.01% on rHuPH20 [4] (Methionine 0 mM), 3.50% on rHuPH20 [4] (Methionine 2 mM), 3.44% at rHuPH20 [4] (Methionine 10 mM) and 3.34% at rHuPH20 [4] (Methionine 50 mM).

As for `Cl.Cl.NCCCCC(N)C(=O)NC(CCCCN)C(=O)O` (centres unmarked) [Lys-Lys, Lys-Lys dihydrochloride], at rHuPH20 [1], the “Effect on rHuPH20 enzymatic activity” value is given as “Strong stabilizer”. Also, the “effect on rHuPH20 stability in comparison with NaCl” value at rHuPH20 [1] (stabilizer screening, 30° C. about one week, […] m-cresol, 0.2% phenol) is recorded as “stabilized rHuPH20 more than NaCl”. The “Effect on insulin solubility” value is recorded as “Reduced solubility” in data set [2] (setting [7]) and “caused severe precipitation of insulin” in data set [2] (stabilizer screening, samples stored at 5° C.). Moreover, the “temperature effect (dpH/dT)” value in data set [6] is recorded as −0.033 U/° C.

The record behind these values is patent US20130011378A1, “Stable formulations of a hyaluronan-degrading enzyme” (priority 2011, published 2013).
